Measurements published in patent US10413529B2, “Methods of inhibiting cataracts and presbyopia” (UNIVERSITY OF MASSACHUSETTS, priority 2013, dated 2019).
“And” between values parts separate entries of the source, which are not always exact repeats. Identical values can stand only once.

What was measured:
[1] = tested on: γ-crystallin; test: DLS, aggregation of γ-crystallin (stated for γD and γS together); format: biochemical; settings: dilute solution, 22° and 37° C.
Method: Scattering intensity was measured at angles between 30° and 90° at 5° intervals, corresponding to a scattering wave vector (q) range between 8.41×10^6 and 2.30×10^7 m^−1. The scattering wave vector is defined as q=4πn sin (θ/2)/λ, where θ is the scattering angle, and λ=514.5, the wavelength of the argon laser in vacuum, and n is 1.33, the refractive index of water. The temperature of the sample was held at constant temperature of 4 to 37±0.1° C. by a circulating water bath.
The correlation function was analyzed using CONTIN analysis to calculate lag times for the correlation functions at measured angles. The peaks represent the diffusive mode of the proteins. The delay times (τ) were converted to Γ and graphed versus q^2. The slope of the fitted line is the diffusion coefficient (D). The lines are fitted such that the intercept is zero because a non-zero value of q=0 is unphysical. The Γ versus q^2 plots were linear with r^2 values of 0.95 or greater.
All solutions were filtered with 0.22 μm hydrophobic PVDF membranes (Fisher Scientific) into 10 mm diameter borosilicate glass tubes and sealed. Solutions were allowed to equilibrate for thirty minutes prior to measuring light scattering.
γ-crystallins were subjected to a variety of experimental conditions, including a range of pHs (5, 6, 7, 8, 9, 10, 11), concentrations of KCl (100 mM, 150 mM, 300 mM, 500 mM, 1000 mM) and temperature (4.5° C., 22° C., 37° C.). The pH and salt concentration were adjusted via overnight dialysis at 4° C. and their final concentration adjusted to 1.0 g/L.
It had been hypothesized that disulfide bonds might mediate the observed γ-crystallin aggregates. The DLS of the γ-crystallin proteins was also measured in 5 mM DTT, and in the presence of 1.0 g/L α-crystallin. […] Thus, this hypothesis was incorrect.
Further, the synthesized α-crystallin proteins were mixed with γ-crystallin proteins to determine if the chaperoning ability of α-crystallin disrupts the γ-crystallin aggregates. The α-A and α-B crystallins were each individually mixed with γD- or γS-crystallin in a molar ratio of 3:1, respectively, mimicking the ratio found in the human eye lens. All solutions were allowed to equilibrate for an hour at 4° C.

[2] = tested on: human corneal epithelial cells (EpiOcular™ tissue); test: Trans-epithelial transport across epithelium construct; format: in vitro ADME
Method: The transport of the CAPEG4 across an epithelium construct was studied. The epithelium is the outer layer of the cornea and transport across the epithelium has proven to be challenging.
Specifically, the CAPEG4 construct in solution (10) was added to the top of an apparatus including a tissue culture plastic insert (11) containing culture medium (12) and an epithelium construct. (FIG. 19).

[3] = 16 mg/mL CAPEG4, blank insert (no tissue) at 15 min

NCCOCCOCCOCCOCCC(=O)O [CAPEG4]
aggregation of γ-crystallin modified with the agent (DLS) [1]: prevented aggregation of proteins | Bottom Average ([2]; 1 mg/ml CAPEG4, 15 min): 13 mcg/well | Top Average ([2]; 1 mg/ml CAPEG4, 15 min): 449 mcg/well | Top mcg/well ([2]; 1 mg/ml CAPEG4, 15 min): 427 mcg/well and 472 mcg/well | Bottom % (stock) ([2]; 1 mg/ml CAPEG4, 15 min, stock 543 mcg/well): 2.4% | Bottom Average ([2]; 1 mg/ml CAPEG4, 30 min): 31 mcg/well | Bottom mcg/well ([2]; 1 mg/ml CAPEG4, 30 min): 26 mcg/well and 37 mcg/well | Top Average ([2]; 1 mg/ml CAPEG4, 30 min): 446 mcg/well | Top mcg/well ([2]; 1 mg/ml CAPEG4, 30 min): 448 mcg/well and 445 mcg/well | Bottom % (stock) ([2]; 1 mg/ml CAPEG4, 30 min, stock 543 mcg/well): 5.8% | Bottom Average ([2]; 1 mg/ml CAPEG4, 45 min): 8 mcg/well | Bottom mcg/well ([2]; 1 mg/ml CAPEG4, 45 min): 9 mcg/well and 8 mcg/well | Top Average ([2]; 1 mg/ml CAPEG4, 45 min): 443 mcg/well | Top mcg/well ([2]; 1 mg/ml CAPEG4, 45 min): 459 mcg/well and 428 mcg/well | Bottom % (stock) ([2]; 1 mg/ml CAPEG4, 45 min, stock 543 mcg/well): 1.5% | Bottom Average ([2]; 1 mg/ml CAPEG4, 60 min): 9 mcg/well | Bottom mcg/well ([2]; 1 mg/ml CAPEG4, 60 min): 8 mcg/well and 11 mcg/well | Top Average ([2]; 1 mg/ml CAPEG4, 60 min): 421 mcg/well | Top mcg/well ([2]; 1 mg/ml CAPEG4, 60 min): 454 mcg/well and 388 mcg/well | Bottom % (stock) ([2]; 1 mg/ml CAPEG4, 60 min, stock 543 mcg/well): 1.7% | Bottom Average ([2]; 1 mg/ml CAPEG4, 90 min): 31 mcg/well | Top Average ([2]; 1 mg/ml CAPEG4, 90 min): 463 mcg/well | Top mcg/well ([2]; 1 mg/ml CAPEG4, 90 min): 467 mcg/well and 459 mcg/well | Bottom % (stock) ([2]; 1 mg/ml CAPEG4, 90 min, stock 543 mcg/well): 5.7% | Bottom Average ([2]; 1 mg/ml CAPEG4, 120 min): 25 mcg/well | Bottom mcg/well ([2]; 1 mg/ml CAPEG4, 120 min): 21 mcg/well and 30 mcg/well | Top Average ([2]; 1 mg/ml CAPEG4, 120 min): 481 mcg/well | Top mcg/well ([2]; 1 mg/ml CAPEG4, 120 min): 453 mcg/well and 510 mcg/well | Bottom % (stock) ([2]; 1 mg/ml CAPEG4, 120 min, stock 543 mcg/well): 4.7% | Bottom Average ([2]; 1 mg/ml CAPEG4, Time 0 harvest): 3 mcg/well | Bottom mcg/well ([2]; 1 mg/ml CAPEG4, Time 0 harvest): 4 mcg/well and 3 mcg/well | Top Average ([2]; 1 mg/ml CAPEG4, Time 0 harvest): 450 mcg/well | Top mcg/well ([2]; 1 mg/ml CAPEG4, Time 0 harvest): 446 mcg/well and 453 mcg/well | Bottom % (stock) ([2]; 1 mg/ml CAPEG4, Time 0 harvest, stock 543 mcg/well): 0.6% | Bottom Average ([2]; 16 mg/mL CAPEG4, 15 min): 60 mcg/well | Bottom mcg/well ([2]; 16 mg/mL CAPEG4, 15 min): 58 mcg/well and 62 mcg/well | Top Average ([2]; 16 mg/mL CAPEG4, 15 min): 6375 mcg/well | Top mcg/well ([2]; 16 mg/mL CAPEG4, 15 min): 5842 mcg/well and 6908 mcg/well | Bottom % (stock) ([2]; 16 mg/mL CAPEG4, 15 min, stock 8186 mcg/well): 0.7% | Bottom Average ([2]; 16 mg/mL CAPEG4, 30 min): 99 mcg/well | Bottom mcg/well ([2]; 16 mg/mL CAPEG4, 30 min): 93 mcg/well and 105 mcg/well | Top Average ([2]; 16 mg/mL CAPEG4, 30 min): 6312 mcg/well | Top mcg/well ([2]; 16 mg/mL CAPEG4, 30 min): 6099 mcg/well and 6526 mcg/well | Bottom % (stock) ([2]; 16 mg/mL CAPEG4, 30 min, stock 8186 mcg/well): 1.2% | Bottom Average ([2]; 16 mg/mL CAPEG4, 45 min): 548 mcg/well | Bottom mcg/well ([2]; 16 mg/mL CAPEG4, 45 min): 677 mcg/well and 418 mcg/well | Top Average ([2]; 16 mg/mL CAPEG4, 45 min): 6335 mcg/well | Top mcg/well ([2]; 16 mg/mL CAPEG4, 45 min): 6313 mcg/well and 6356 mcg/well | Bottom % (stock) ([2]; 16 mg/mL CAPEG4, 45 min, stock 8186 mcg/well): 6.7% | Bottom Average ([2]; 16 mg/mL CAPEG4, 60 min): 149 mcg/well | Bottom mcg/well ([2]; 16 mg/mL CAPEG4, 60 min): 160 mcg/well and 139 mcg/well | Top Average ([2]; 16 mg/mL CAPEG4, 60 min): 6972 mcg/well | Top mcg/well ([2]; 16 mg/mL CAPEG4, 60 min): 6450 mcg/well and 7494 mcg/well | Bottom % (stock) ([2]; 16 mg/mL CAPEG4, 60 min, stock 8186 mcg/well): 1.8% | Bottom Average ([2]; 16 mg/mL CAPEG4, 90 min): 525 mcg/well | Bottom mcg/well ([2]; 16 mg/mL CAPEG4, 90 min): 525 mcg/well | Top Average ([2]; 16 mg/mL CAPEG4, 90 min): 6457 mcg/well | Top mcg/well ([2]; 16 mg/mL CAPEG4, 90 min): 6122 mcg/well and 6792 mcg/well | Bottom % (stock) ([2]; 16 mg/mL CAPEG4, 90 min, stock 8186 mcg/well): 6.4% | Bottom Average [2, 3]: 1837 mcg/well | Bottom mcg/well [2, 3]: 1837 mcg/well | Top Average [2, 3]: 7857 mcg/well | Top mcg/well [2, 3]: 7857 mcg/well | Bottom % (stock) ([2]; 16 mg/mL CAPEG4, blank insert (no tissue) at 15 min, stock 8186 mcg/well): 23%
